Measured values: US20160067311A1, “USE OF ELSIGLUTIDE TO TREAT GASTROINTESTINAL MUCOSITIS INCLUDING CHEMOTHERAPY-INDUCED DIARRHEA” (Helsinn Healthcare SA, priority 2014, published 2016)
Peptide text beside a SMILES is read from it.

Columns and labels:
[1] = Clinical pharmacokinetics of elsiglutide and its metabolites (studies 06-013, TIDE-09-04, TIDE-11-10)
Method: (§1) Data on human exposure to elsiglutide generated so far originate from three clinical trials, one performed in healthy subjects (study 06-013) and two in cancer patients (TIDE-09-04, TIDE-11-10). The main objective of the first two studies was the evaluation of the safety, tolerability and maximum tolerated dose (MTD) of ascending elsiglutide doses administered as s.c. (both studies) and i.v. (only study 06-013) bolus injections. In study 06-013 elsiglutide was administered as single i.v. or s.c. bolus, while in study TIDE-09-04 each dose was administered as s.c. bolus on 4 consecutive days. Study TIDE-11-10 was a phase II proof of concept study that mainly evaluated the efficacy of elsiglutide administered as 24 mg daily s.c. bolus injections for 4 consecutive days in preventing CID in patients with colorectal cancer receiving 5-FU based chemotherapy (FOLFOX4 or FOLFIRI regimen). The secondary objectives of all three studies included the evaluation of the pharmacokinetics of elsiglutide and its major metabolites in humans.

[2] = human, in vivo
Method: as §1

[3] = system: cancer patients; details: patients treated with the drug; cited from earlier work

| Structure (SMILES) | AUC of ZP2242 relative to that of ZP2712 ([1]; human, plasma) | half-life ([1]; human, plasma) | dose dependence of pharmacokinetics (Cmax and AUC increases proportional to dose) ([1]; study TIDE-09-04, s.c. on 4 consecutive days) | exposure to metabolite relative to exposure to the parent ZP1846 (elsiglutide) [2] | patients in whom diarrhea occurs [3] |
| --- | --- | --- | --- | --- | --- |
| CC[C@H](C)[C@H](NC(=O)[C@H](CC(C)C)NC(=O)[C@H](Cc1c[nH]c2ccccc12)NC(=O)[C@H](C)NC(=O)[C@@H](NC(=O)[C@H](Cc1ccccc1)NC(=O)[C@H](CC(=O)O)NC(=O)[C@H](CCCNC(=N)N)NC(=O)[C@H](C)NC(=O)[C@H](C)NC(=O)[C@H](CC(C)C)NC(=O)[C@H](C)NC(=O)[C@H](CC(=O)O)NC(=O)[C@H](CC(C)C)NC(=O)[C@@H](NC(=O)[C@@H](NC(=O)[C@H](CO)NC(=O)[C@H](CC(C)C)NC(=O)[C@H](CCC(=O)O)NC(=O)[C@H](CO)NC(=O)[C@H](CO)NC(=O)[C@H](Cc1ccccc1)NC(=O)[C@H](CO)NC(=O)CNC(=O)[C@H](CCC(=O)O)NC(=O)CNC(=O)[C@@H](N)Cc1c[nH]cn1)[C@@H](C)O)[C@@H](C)CC)[C@@H](C)CC)C(=O)N[C@@H](C)C(=O)N[C@H](C(=O)N[C@@H](CCCCN)C(=O)N[C@H](C(=O)N[C@H](C(=O)N[C@@H](CC(=O)O)C(=O)N[C@@H](CCCCN)C(=O)O)[C@@H](C)O)[C@@H](C)CC)[C@@H](C)O [ZP2242] (H-HGEGSFSSELSTILDALAARDFIAWLIATKITDK-OH; N-terminus assumed) | at least 10 times | 6 to 9 h | dose independent | > 25 fold | – |
| CS(=O)(=O)CCNCc1ccc(-c2ccc3ncnc(Nc4ccc(OCc5cccc(F)c5)c(Cl)c4)c3c2)o1 [lapatinib] | – | – | – | – | up to 60% |
